Reference: patent publication US6984649B1, “Pyridine derivatives” (Bayer Aktiengesellschaft, priority 2000, dated 2006)
Where a name gives a salt, the structure may show the parent alone.

System: A549 human lung epithelium cell line
Experiment: RANTES production in response to TNF-α from A549 cells
Assay type: cell-based
Conditions: A549 cells, 100 ng/ml TNF-α, read-out: Cellular activity grade (A549) (Cellular IC50)
Experimental: [The Measurement of RANTES Production in Response to TNF-α from A549 Cells]
(1) Preparation of A549 Cells
• The A549 human lung epithelium cell line (ATCC […]) was maintained in Dulbecco's modified Eagle's medium (D-MEM, Nikken Biomedical Institute) supplemented with 10% FCS (Gibco), 100 U/ml penicillin, 100 μg/ml streptomycin, and 2 mM glutamine (culture medium). Forty thousand (4×10^4) cells (80 μl/well) were seeded in each well of 96 well flat-bottom tissue culture plate (Falcon #3072). The plate was allowed to stand for 2 hrs, thus the cells were adhered to the bottom of each well. To the each well was added 10 μl vehicle (1% DMSO), serial dilutions of test compounds in 1% DMSO, or 5 nM Dexamethasone in 1% DMSO as a reference. The mixture (90 μl/well) was incubated for 1 hr at 37° C. After 1 hr, 1 μg/ml TNF-α (10 μl) in culture medium was added to the mixture to obtain 100 μl of reaction mixture. The reaction mixture was cultured for 24 hrs to stimulate the cells with 100 ng/ml TNF-α. Cells with vehicle without TNF-α stimulation were also prepared. (2) Measurement of RANTES Production • Then the concentration of RANTES released from the cells in the supernatants of each well was determined using a quantitative sandwich enzyme immunoassay technique. First, 2 μg/ml mouse anti-huRANTES mAb (R&D Systems, #mAb678) in PBS buffer (pH 7.4, 100 μl) was put in each well of 96-well NUNC fluoro plate (Nalge Nunc, New York USA) (Final 200 ng/well) and the plate was allowed to stand for overnight at 4° C. to be coated by the antibody. Each well of the plate was then washed with 350 μl wash buffer (0.05% Tween-20, 0.85% NaCl, and 25 mM Tris/HCl pH7.4) for three times. Blocking buffer containing 1% BSA (Sigma 99% pure, 100 g), 5% sucrose (Nacalai tesque, 99% pure, 500 g), and 0.02% azide (Nacalai tesque, 100%, 500 g) were added (200 μl) to each well and then the plate was allowed to stand for 4 hours to stabilize the coated antibody. Next, 50 μl supernatants of cell culture prepared in (1) above were put in each well of the 96-well NUNC fluoro plate with coated antibody. Recombinant Human RANTES (Pepro Tech, Inc. #300-06) was used as the standard for the determination of RANTES production (linear range between 1 and 10 ng/ml). Eu-labelled mouse anti-huRANES mAb (60 ng/ml: R&D Systems, #mAb278) in PBS supplemented by 1% BSA and 0.05% Tween 20 was added (50 μl) to each well. The reaction mixtures were incubated at room temperature for 4 hrs. After washing with wash buffer (0.05% Tween-20, 0.85% NaCl, and 25 mM Tris/HCl pH7.4, 350 μl/well) for 5 times with the use of a Sera Washer (Bio-Tech, #MW-96R), the enhancement solution (DELFIA, #1244-405, 100 μl/well) was added to each well. The plate was incubated for 10 minutes at room temperature with moderate shaking. Fluorescent intensity was measured using a DELFIA fluorimeter (Wallac). Excitation was performed at 340 nm and emission was measured at 615 nm. [The Measurement of TNF-α Production in Response to LPS from Peripheral Blood Mononuclear Cells (PBMC)] (1) Preparation of PBMC • Human PBMC were prepared by first obtaining blood from healthy donors and isolating the cells from the blood. The isolation was done by Ficoll gradient-centrifugation method using Ficoll Pacque (Pharmacia #17-1440-02). Within three hours from donation, the isolated PBMC was used. After three times washing with PBS, PBMC were resuspended with RPMI 1640 (Nikken BioMedical Institute) supplemented with 10% FCS (Gibco), 100 U/ml penicillin, 100 μg/ml streptomycin, and 2 mM glutamine (culture medium). The cells (1×10^5 in 150 μL/well) were seeded in each well of 96 well flat-bottom tissue culture plate (Falcon #3072). To the each well was added 20 μl vehicle (1% DMSO), serial dilutions of test compounds in 1% DMSO, or 250 nM Dexamethasone in 1% DMSO as a reference. The mixture (170 μl/well) was incubated for 1 hr at 37° C. After 1 hr, 20 ng/ml LPS (30 μl) in culture medium was added to the mixture to obtain 200 μl of reaction mixture. […]

Row | IC50 | SMILES
1 | 1 to 10 µM | Nc1nc(-c2ccccc2O)cc2c1CNC2Cc1ccccc1 (stereo in doubt) [Example 20-3, 2-[(1S)-4-amino-1-benzyl-2,3-dihydro-1H-pyrrolo[3,4-c]pyridin-6-yl]phenol hydrochloride]

Same assay, conditions: Homo sapiens, A549, A549 cells, 100 ng/ml TNF-α, read-out: Cellular activity grade (A549) (Cellular IC50)

Row | IC50 | SMILES
2 | < 1 µM | N#Cc1c(C2CCCNC2)cc(-c2ccccc2O)nc1N (centres unmarked) [Example 1-1, 2-amino-6-(2-hydroxyphenyl)-4-(3-piperidinyl)-nicotinonitrile hydrochloride]
3 | < 1 µM | N#Cc1c(C2CCNC2)cc(-c2ccccc2O)nc1N (centres unmarked) [Example 1-2, 2-amino-6-(2-hydroxyphenyl)-4-(3-pirrolidinyl)nicotinonitrile trifluoroacetate]
4 | 1 to 10 µM | CC1(c2cc(-c3ccccc3O)nc(N)c2C#N)CCCNC1 (centres unmarked) [Example 1-3, 2-amino-6-(2-hydroxyphenyl)-4-(3-methylpiperidin-3-yl)-nicotinonitrile hydrochloride]
5 | 1 to 10 µM | N#Cc1c(N)nc(-c2ccccc2O)c(F)c1C1CCCNC1 (centres unmarked) [Example 1-4, 2-amino-5-fluoro-6-(2-hydroxyphenyl)-4-(3-piperidinyl)-nicotinonitrile trifluoroacetate]
6 | 1 to 10 µM | CNC1CCCC(c2cc(-c3ccccc3O)nc(N)c2C#N)C1 (centres unmarked) [Example 1-5, 2-amino-6-(2-hydroxyphenyl)-4-[3-methylamino]cyclohexyl]nicotinonitrile hydrochloride]
7 | < 1 µM | N#Cc1c(C2CCCNC2)cc(-c2ncccc2O)nc1N (centres unmarked) [Example 1-6, 6-amino-3′-hydroxy-4-(3-piperidinyl)-2,2′-bipyridine-5-carbonitrile hydrochloride]
8 | < 1 µM | N#Cc1c(C2CCCNC2)cc(-c2sccc2O)nc1N (centres unmarked) [Example 1-7, 2-amino-6-(3-hydroxy-2-thienyl)-4-(3-piperidinyl)nicotinonitrile hydrobromide]
9 | > 10 µM | N#Cc1c(C2CCCC(C(=O)O)C2)cc(-c2ccccc2O)nc1N (centres unmarked) [Example 1-8, 3-[2-amino-3-cyano-6-(2-hydroxyphenyl)-4-pyridinyl]cyclohexanecarboxylic acid]
10 | < 1 µM | N#Cc1c(C2=CCCNC2)cc(-c2ccccc2O)nc1N [Example 1-9, 2′-amino-6′-(2-hydroxyphenyl)-1,2,5,6-tetrahydro-3,4′-bipyridine-3′-carbonitrile hydrochloride]
11 | > 10 µM | N#Cc1c(C2CCCNC2)cc(-c2c(N)cccc2O)nc1N (centres unmarked) [Example 1-10, 2-amino-6-(2-amino-6-hydroxyphenyl)-4-(3-piperidinyl)nicotinonitrile hydrochloride]
12 | > 10 µM | N#Cc1c(C2CCCNC2)cc(-c2c(O)cccc2NCc2ccccc2)nc1N (centres unmarked) [Example 1-11, 2-amino-6-[2-(benzylamino)-6-hydroxyphenyl]-4-(3-piperidinyl)nicotinonitrile hydrochloride]
13 | > 10 µM | CC(=O)Nc1cccc(O)c1-c1cc(C2CCCNC2)c(C#N)c(N)n1 (centres unmarked) [Example 1-12, N-{2-[6-amino-5-cyano-4-(3-piperidinyl)-2-pyridinyl]-3-hydroxyphenyl}acetamide hydrochloride]
14 | < 1 µM | N#Cc1c(C2CCCNC2)cc(-c2c(O)cccc2O)nc1N (centres unmarked) [Example 2-1, 2-amino-6-(2,6-dihydroxyphenyl)-4-(3-piperidinyl)nicotinonitrile hydrochloride]
15 | < 1 µM | N#Cc1c(C2CCCNC2)cc(-c2c(O)cccc2OCc2ccccc2)nc1N (centres unmarked) [Example 2-2, 2-amino-6-[2-(benzyloxy)-6-hydroxyphenyl]-4-(3-piperidinyl)nicotinonitrile hydrochloride]
16 | < 1 µM | N#Cc1c(C2CCNCC2)cc(-c2c(O)cccc2OCC2CC2)nc1N [Example 2-3, hydrochloride]
17 | < 1 µM | CN1CCCC(c2cc(-c3c(O)cccc3OCC3CC3)nc(N)c2C#N)C1 (centres unmarked) [Example 3-1, 2-amino-6-[2-(cyclopropylmethoxy)-6-hydroxyphenyl]-4-(1-methyl-3-piperidinyl)nicotinonitrile]
